# Laboratory results published in PubChem BioAssay (NCI).
#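 Following 48 hours of exposure in 96-well plates, responses at five concentrations were used to interpolate endpoints linearly. At the GI50, growth is halved. TGI: concentration producing complete growth inhibition.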
# Assays:
# Experiment in all cases: NCI-60 cell line screen, 48 h
# SK-MEL-2 melanoma = tested on: SK-MEL-2 melanoma
# SW-620 colon = tested on: SW-620 colon
# BT-549 breast = tested on: BT-549 breast
# MDA-MB-231 breast = tested on: MDA-MB-231 breast
# HS 578T breast = tested on: HS 578T breast
# EKVX NSCLC = tested on: EKVX NSCLC
# NCI-H460 lung = tested on: NCI-H460 lung
# NCI-H522 lung = tested on: NCI-H522 lung
# SN12C renal = tested on: SN12C renal
# UO-31 renal = tested on: UO-31 renal
# OVCAR-5 ovarian = tested on: OVCAR-5 ovarian
# LOX IMVI melanoma = tested on: LOX IMVI melanoma
# KM12 colon = tested on: KM12 colon
# K-562 leukemia = tested on: K-562 leukemia
# SF-295 CNS = tested on: SF-295 CNS
# CAKI-1 renal = tested on: CAKI-1 renal
# NCI-H226 lung = tested on: NCI-H226 lung
# M14 melanoma = tested on: M14 melanoma
# UACC-257 melanoma = tested on: UACC-257 melanoma
# SNB-75 CNS = tested on: SNB-75 CNS
# OVCAR-8 ovarian = tested on: OVCAR-8 ovarian
# PC-3 prostate = tested on: PC-3 prostate
# OVCAR-3 ovarian = tested on: OVCAR-3 ovarian
# UACC-62 melanoma = tested on: UACC-62 melanoma
# HOP-92 NSCLC = tested on: HOP-92 NSCLC
# SR leukemia = tested on: SR leukemia
# SF-268 CNS = tested on: SF-268 CNS
compound,measurement,setting,value
O=c1ccc2nc(C(F)(F)F)nn(-c3ccccc3)c-2c1,GI50,SK-MEL-2 melanoma,3.63 µM
same,TGI,SK-MEL-2 melanoma,15.6 µM
same,GI50,SW-620 colon,1.75 µM
same,TGI,SW-620 colon,3.71 µM
same,GI50,BT-549 breast,12.3 µM
same,TGI,BT-549 breast,24.8 µM
same,GI50,MDA-MB-231 breast,1.92 µM
same,TGI,MDA-MB-231 breast,5.55 µM
same,GI50,HS 578T breast,12.2 µM
same,TGI,HS 578T breast,80.4 µM
same,GI50,EKVX NSCLC,13.6 µM
same,TGI,EKVX NSCLC,27.1 µM
same,GI50,NCI-H460 lung,17.6 µM
same,TGI,NCI-H460 lung,36.2 µM
same,GI50,NCI-H522 lung,1.51 µM
same,TGI,NCI-H522 lung,3.01 µM
same,GI50,SN12C renal,7.31 µM
same,TGI,SN12C renal,57.4 µM
same,GI50,UO-31 renal,1.48 µM
same,TGI,UO-31 renal,2.9 µM
same,GI50,OVCAR-5 ovarian,15.4 µM
same,TGI,OVCAR-5 ovarian,29.1 µM
same,GI50,LOX IMVI melanoma,1.59 µM
same,TGI,LOX IMVI melanoma,3.22 µM
same,GI50,KM12 colon,19.6 µM
same,TGI,KM12 colon,37.3 µM
same,GI50,K-562 leukemia,2.11 µM
same,TGI,K-562 leukemia,9.14 µM
same,GI50,SF-295 CNS,22.7 µM
same,TGI,SF-295 CNS,67.1 µM
same,GI50,CAKI-1 renal,1.47 µM
same,TGI,CAKI-1 renal,2.8 µM
same,GI50,NCI-H226 lung,13.1 µM
same,TGI,NCI-H226 lung,30.5 µM
same,GI50,M14 melanoma,5.8 µM
same,TGI,M14 melanoma,19 µM
same,GI50,UACC-257 melanoma,1.91 µM
same,TGI,UACC-257 melanoma,4.05 µM
same,GI50,SNB-75 CNS,13.3 µM
same,TGI,SNB-75 CNS,26.4 µM
same,GI50,OVCAR-8 ovarian,4.21 µM
same,TGI,OVCAR-8 ovarian,33.9 µM
same,GI50,PC-3 prostate,10.7 µM
same,TGI,PC-3 prostate,23.7 µM
same,GI50,OVCAR-3 ovarian,1.58 µM
same,TGI,OVCAR-3 ovarian,2.95 µM
same,GI50,UACC-62 melanoma,5.13 µM
same,TGI,UACC-62 melanoma,17.9 µM
same,GI50,HOP-92 NSCLC,1.41 µM
same,TGI,HOP-92 NSCLC,2.97 µM
same,GI50,SR leukemia,0.999 µM
same,TGI,SR leukemia,> 100 µM
same,GI50,SF-268 CNS,15 µM
